# Experimental data: patent US4737361A, “Alpha adrenergic amine of substantial alpha2 adrenergic amine activity as an antiperspirant” (Bristol-Myers Company, priority 1986, dated 1988)
# Where a name gives a salt, the structure may show the parent alone.
# Experiments:
# [1] = test system: sweat glands; test: rat foot pad sweat inhibition (starch-iodine count of secreting sweat glands, test foot vs control foot); format: in vivo, Sprague Dawley rats; conditions: for Approx. % Inhibition: topical, rat hind foot pads, 40 minutes post treatment
# Protocol: A series of test solutions were prepared by dissolving various quantities of xylometazoline HCl, oxymetazoline HCl and naphazoline HCl in freshly prepared distilled water. In the case of xylometazoline HCl 0.003%, 0.03%, 0.15% and 0.3% solutions were prepared. In the cases for oxymetazoline HCl and naphazoline HCl 0.15% solutions were made. The control material is distilled water.
# A. Prior to testing, rats are routinely acclimated to the laboratory environment for seven days and gross observations are made to ensure good health of animals to be tested.
# B. Sprague Dawley rats, male and/or female (175-250 gm) are selected for test and identified by cage label and ear tag number.
# C. A minimum of 6 animals is used in testing each solution.
# A. Test room should be maintained at a temperature of 78°±2° F.
# 1. Test animals are injected intramuscularly with Innovar Vet™ (0.01 ml/100 gm body wt.) by use of a 0.25 ml tuberculin syringe with a 26 or 27 gauge needle. Animals are then returned to their cages.
# 3. Both hind feet are then swabbed with 70% ethyl alcohol (ETOH) to remove any debris.
# 4. The four interdigital palmar foot pads on one hind foot are then treated with test material while the opposite hind foot is treated with the control material.
# 5. After treatment of all animals, an iodine solution (2% in 95% ETOH wt./vol.) is applied to both hind feet.
# 6. 30 minutes post treatment the hind feet are then painted with a suspension of starch and castor oil (50/50, wt./vol.).
# 7. 40 minutes post treatment Polaroid photos (3X, using Polaroid Type Film 669) are taken of both hind feet in the same frame.
# 1. The number of activated sweat glands in each of the four palmar foot pads is quantitated by manually counting the black dots observed in the photo of the control and test treated feet.
# 2. The ratio of the total number of secreting sweat glands on the control foot vs the total number of secreting sweat glands on the test foot is used to estimate the percent inhibition of sweat in the rat foot pad.
# 3. The following formula is used to calculate activity. [formula]
# [2] = test system: single equine sweat glands; conditions: cited from earlier work
SMILES,Approx. % Inhibition ([1]; Concentration Tested 0.15%) [%],sweating responses [2],further results
"c1ccc2c(CC3=NCCN3)cccc2c1 [Naphazoline HCl, naphazoline HCl]",~95,–,–
CNC[C@H](O)c1cccc(O)c1 [phenylephrine],–,moderate sweating responses,–
"Cc1cc(C(C)(C)C)c(O)c(C)c1CC1=NCCN1 [Oxymetazoline HCl, oxymetazoline HCl]",~92,–,–
COc1ccc(OC)c(C(O)C(C)N)c1 (stereo not drawn) [methoxamine],–,moderate sweating responses,–
"Cc1cc(C(C)(C)C)cc(C)c1CC1=NCCN1 [Xylometazoline HCl, xylometazoline HCl]",~80,–,dose response of percent inhibition ([1]; 0.003-0.3% solutions): the percent inhibition increased with the increase in concentration of the test drug; Approx. % Inhibition ([1]; Concentration Tested 0.003%): ~30%; Approx. % Inhibition ([1]; Concentration Tested 0.03%): ~50%; Approx. % Inhibition ([1]; Concentration Tested 0.3%): ~88%
